# Assay results: US11779544B1, “Antithrombotic nanoparticles and methods for treating necrotizing enterocolitis” (University of South Florida, priority 2018, dated 2023)
# Structures can show the parent of a compound that is named as a salt.
# Columns and labels:
# plasma thrombin activity = test: Plasma thrombin activity in pups pre-treated with PCI-27483 before intestinal injury; type: in vivo, mice; settings: pre-treatment with PCI-27483
# Source text: FIGS. 5A-5F. Resident intestinal macrophages release tissue factor to activate thrombin during neonatal intestinal injury. FIG. 5a. Scatterplots (means±SEM) show tissue factor (TF) concentrations in plasma and intestinal tissue at serial time points during neonatal intestinal injury, measured by ELISA. N=6 mice/group; Kruskal Wallis H test with Dunn's post-test for group comparisons, * P<0.05, ** P<0.01 vs. control; FIG. 5b. Plasma thrombin activity in mouse pups with intestinal injury vs. mouse pups first treated with PCI-27483, which inhibits the tissue factor-factor VII extrinsic pathway tenase complex. N=4 mice/group; Kruskal Wallis H test with Dunn's post-test for group comparisons, ***P<0.001 vs. control, ##P<0.01 vs. control treated with PCI-27483; FIG. 5c. Representative fluorescence photomicrographs show immunoreactivity for TF (green) in F4/80^+ (red) resident macrophages in control ileum and colon. […] FIG. 5d Scatter plots on right summarize the fluorescence intensity for TF in control intestinal epithelial cells (IECs), control macrophages, injury IECs, and injury macrophages (top) and in control colonic epithelial cells (CECs), control macrophages, injury CECs, and injury macrophages. […]
# To investigate the mechanisms for thrombin activation, tissue factor (TF) concentrations were evaluated during NEC-like intestinal injury. […]
# [1] = in vivo; cited from earlier work
# [2] = cited from earlier work
# P10 platelets [3] = test: Mixing experiment: dense granule discharge (mepacrine release) of control platelets resuspended in intestinal injury plasma; type: cell-based, mice; settings: mepacrine fluorescence released into supernatant; intestinal injury plasma at 3 h with added inhibitor
# Protocol: FIGS. 12A and 12B. (A) Scatter bar diagrams (means±SEM) show mepacrine fluorescence signal released from control P10 platelets into the supernatant, following resuspension in plasma from pups in (1) control group; (2) intestinal injury at 3 h; and (3) intestinal injury at 3 h with added bivalirudin, a synthetic peptide inhibitor of thrombin. N=6 mice/group; (B) mepacrine fluorescence released from control platelets following resuspension in plasma from (1) control group (N=8 mice); (2) intestinal injury at 3 h (N=12 mice); and (3) intestinal injury at 3 h with added D-phenylalanyl-prolyl-arginyl chloromethyl ketone (PPACK), a different thrombin inhibitor (N=11 mice). Kruskal Wallis H test with Dunn's post-test for group comparisons; * P<0.05, ** P<0.01 vs. control; #P<0.05, ###P<0.001 vs. intestinal injury plasma.
# (§1) Neonatal platelets can be hyporesponsive under specific conditions, [Mull M M, Hathaway W E. Altered platelet function in newborns. Pediatr Res. 1970; 4(3):229-237] and therefore, the ability of neonatal murine platelets to respond to thrombin was checked. Treatment of mepacrine-stained P10 platelets with recombinant thrombin ([…]) caused dense granule discharge within 15 min (FIG. 11). […]
# (§2) Dense granules were stained with mepacrine (Quinacrine dihydrochloride; Sigma). […] Fluorescence was measured at 436/525 nm.
# [4] = system: platelets from control pups; test: CD31 expression on control platelets resuspended in intestinal injury plasma; type: cell-based, mice; settings: bivalirudin 200 ng/mL; platelets resuspended ×45 min
# Protocol: (§3) FIG. 3b. Plasma from mouse pups with intestinal injury activates platelets via thrombin. […] N=3 mice/group; 2 runs; Kruskal Wallis H test with Dunn's post-test for group comparisons, ** P<0.01 vs. control, #P<0.05 vs. intestinal injury; FIG. 3c Thrombin activates platelets during murine neonatal intestinal injury. YFP^+ platelets were transfused into WT C57BL/6 pups with intestinal injury, and blood samples were drawn after 3 h. […] Treatment of YFP^+ platelets with bivalirudin prior to transfusion blocked activation-related increase in CD31 expression (lower right). […] N=4 mice/group; Kruskal Wallis H test with Dunn's post-test for group comparisons, * P<0.05 vs. untreated YFP^+ platelets, #P<0.05 vs. endogenous platelets in the bivalirudin-treated YFP^+ platelet transfusion group. […]
# (§4) Platelet activation markers were measured by flow cytometry, using the following fluorescence-labeled antibodies: JON/A (Emfret); anti-CD62P, anti-CD41/GPIIb, CD61/integrin αvβ3, CD31/PECAM-1 (BioLegend, San Diego, Calif.). Platelets were evaluated by size-gate threshold adjustment with microbeads of known diameter (100 nm to 1.3 μm; Spherotech, Lake Forest, Ill.) in forward and side-scatter. […] Platelet aggregation was measured by impedance method and ATP release by luminometry using a 2-channel Chrono-Log lumi-aggregometer (model 700, Chrono-Log, Havertown, Pa., USA) per established methods. […]
# P10 platelets [5] = test: Duration of bivalirudin inhibition of thrombin-mediated dense granule discharge after point-exposure and wash; type: cell-based, mice; settings: platelets treated with bivalirudin in vitro and washed; thrombin 25 ng/mL
# Protocol: FIG. 13. Line diagrams (means±SEM) show mepacrine fluorescence signal released over time from control (blue) and bivalirudin-treated and washed (orange) P10 platelets into the supernatant, following treatment with thrombin (25 ng/mL). Data represent 3 separate experiments; each experiment included platelets pooled from 3 pups; Kruskal Wallis H test with Dunn's post-test for group comparisons; * P<0.05 vs. control.
# In vivo assessment was performed for thrombin-mediated platelet activation during neonatal intestinal injury. […] In the next in vivo study, wild-type neonatal mice 3 h into intestinal injury were transfused with platelets expressing enhanced yellow fluorescence protein (YFP; platelets harvested from progeny of PF4-cre mice (C57BL/6-Tg(Cxcl4-cre)Q3Rsko/J)×R26-stop-YFP mutant mice (B6.129X1-Gt(ROSA)26Sortm1(EYFP)Cos/J). In some mice, YFP^+ platelets were pre-treated with bivalirudin prior to transfusion, and CD31 expression was then measured for both the endogenous and the bivalirudin-treated transfused YFP^+ platelets in blood samples drawn 3 h after the transfusion. Bivalirudin-pretreatment curtailed CD31 expression on YFP^+ platelets (FIG. 3c), providing further evidence for a role of thrombin as the primary platelet activator in NEC-like neonatal intestinal injury. […]
# YFP+ platelets = test: Transfusion of bivalirudin-pretreated YFP+ platelets into pups with intestinal injury, CD31 expression; type: in vivo, mice; settings: YFP+ platelets pre-treated with bivalirudin prior to transfusion, blood drawn 3 h after transfusion
# Protocol: as §3, §4
# P10 platelets [6] = test: Recombinant thrombin treatment of mepacrine-stained platelets, dense granule discharge; type: cell-based, mice; settings: recombinant thrombin (25 μg/mL)
# Protocol: FIGS. 11A and 11B. Scatter bar diagrams (means±SEM) show (A) mepacrine fluorescence signal in platelets isolated from control P10 mice at serial time-points after treatment with recombinant thrombin (25 ng/mL). Fluorescence signal normalized and depicted as percent of control. Data represent 3 separate experiments; each experiment included platelets pooled from 3 pups; (B) mepacrine fluorescence signal released into the supernatant after thrombin stimulation. Kruskal Wallis H test with Dunn's post-test for group comparisons; ** P<0.01,*** P<0.001 vs. control.
# as §1, §2
compound,measurement,setting,value
N=C(N)c1ccc2nc(-c3cc(CC(=O)N[C@@H](CC(=O)O)C(=O)O)cc(-c4cc(S(N)(=O)=O)ccc4O)c3O)[nH]c2c1 [PCI-27483],rise in plasma thrombin activity during intestinal injury,plasma thrombin activity,blocked the rise
"N=C(N)NCCCC(NC(=O)C1CCCN1C(=O)[C@H](N)Cc1ccccc1)C(=O)CCl (stereo partly drawn) [PPACK, D-phenylalanyl-N-[(1S)-4-[(aminoiminomethyl)amino]-1-(2-chloroacetyl)butyl]-L-prolinamide, trifluoroacetate salt]",distribution half-life,[1],7 min
same,elimination half-life,[1],2.9 min
same,LD50,[2]; in vivo,greater than 50 mg/kg
same,long-term toxicity,[2]; mice,no long-term toxicity
bivalirudin: synthetic peptide of 20 amino acids (SEQ ID NO: 1); specific and reversible direct thrombin inhibitor,platelet dense granule discharge caused by plasma from mice with intestinal injury,P10 platelets [3],blocked
same,effects of intestinal injury plasma on platelet CD31 expression,[4],blocked
same,time bivalirudin-treated platelets remained refractory to thrombin,P10 platelets [5],≥ 120 min
same,CD31 expression on transfused YFP+ platelets,YFP+ platelets,blocked
same,CD31 expression on transfused YFP+ platelets,YFP+ platelets; listed as Bivalirudin,curtailed
"recombinant thrombin: Recombinant mouse thrombin (Molecular Innovations), used as platelet activator",time to dense granule discharge,P10 platelets [6],≤ 15 min
